Experiments:
endotheline receptor = target: T1, endotheline receptor (Rattus norvegicus, UniProt P21451); experiment: activity on the endotheline receptor (rat posterior cortex plus cerebellum membranes, 125I Endotheline); format: binding; settings: pH 7.4, 25° C., 60 minutes, read-out: IC50 (displacement by 50% of the specific radioactivity fixed to the receptor)
T1 construct: prepared from rat's posteror cortex plus cerebellum; from tissue; host or cells: rat posterior cortex plus cerebellum membranes
T1 sequence (P21451 27-442): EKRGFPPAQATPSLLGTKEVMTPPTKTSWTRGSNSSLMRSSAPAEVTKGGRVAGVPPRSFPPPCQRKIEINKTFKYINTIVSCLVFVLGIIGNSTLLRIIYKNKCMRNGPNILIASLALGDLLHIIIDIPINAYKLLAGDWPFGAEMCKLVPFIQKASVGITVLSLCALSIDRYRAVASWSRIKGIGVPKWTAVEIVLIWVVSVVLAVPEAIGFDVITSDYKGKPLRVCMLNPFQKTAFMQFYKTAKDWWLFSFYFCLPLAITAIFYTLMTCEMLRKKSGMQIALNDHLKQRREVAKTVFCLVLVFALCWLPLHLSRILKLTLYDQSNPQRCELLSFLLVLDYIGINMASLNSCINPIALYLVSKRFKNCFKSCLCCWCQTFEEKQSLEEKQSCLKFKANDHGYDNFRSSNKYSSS
Procedure: 3) Study of the activity on the endotheline receptor
A membrane preparaton was prepared from rat's posteror cortex plus cerebellum. The tissue was ground up in a POLYTRON in a Tris buffer 50 mM pH=7.4. After 30 minutes at 25° C. (W.B.), the homogenate was centrifuged at 30,000 g for 15 minutes (2 centrifugings with intermediate taking up in the Tris buffer pH 7.4). The deposits were suspended in an incubation buffer (Tris 25 mM, pepsteatine 5 microg/ml, aprotinine 3 microg/ml. PMSF 0.1 mM, EDTA 3 mM, EGTA 1 mM pH 7.4). 2 ml aliquots were distributed in hemolysis tubes and 125I Endotheline (about 50,000 dpm/tube) and the product to be studied were added. The product was first tested at 3×10^-5 M in triplicate. When the tested product displaced by more than 50% the radioactivity linked specifically to the receptor, it was tested again in a range of 7 concentrations to determine the concentration that inhibited the radioactivity linked specifically to the receptor by 50%. In this way, the 50% inhibiting concentration was determined.
The non-specific bond was determined by the addition of endotheline at 10^-6 M (in triplicate). The aliquot was incubated at 25° C. for 60 minutes, put in a water bath at 0° C. for 5 minutes, filtered under reduced pressure, rinsed with Tris buffer 7.4 pH and the radioactivity was counted in the presence of scintillating Triton. […]

[1] = test system: vasoconstrictive effect of endotheline; experiment: antagonistic activity of the vasoconstrictive effect of endotheline in a demedullated rat; format: in vivo; settings: 1 mg/kg (IV), 10 minutes before endotheline 1-3-10-30 μg/kg IV; anaesthetized demedullated Sprague Dawley rats
Procedure: 4) Investigation of an antagonistic activity of the vasoconstrictive effect of endotheline in a demedullated rat
The vasoconstriction caused by injections (IV) of cumulative doses of endotheline (1-3-10-30 μg/kg) was measured by the increase of average arterial pressure in a control group of rats (Sprague Dawley), anaesthetized, then demedullated.

[2] = test system: angiotensin II on the isolated portal vein; experiment: antagonistic activity of angiotensin II on the isolated portal vein; set-up: species or system male Wistar rats; settings: rat isolated portal vein; angiotensin II 3.10^-8 M; compound 15 minutes before stimulation; 37° C.; verapamil 1.10^-6 M; read-out: IC50 (concentration that produced a 50% inhibition of the response to angiotensin)
Procedure: The portal vein was removed from male Wistar rats weighing about 350 g (IFFA Credo France) after cervical dislocation. It was put rapidly into a physiological solution (see below) at ambient temperature and a ring of about 1 mm was mounted in a bath with an isolated element containing 20 ml of the following physiological solution (composition in mM: NaCl 118.3-KCl 4.7-MgSO4 1.2-KH2 PO4 1.2-NaHCO3 25-glucose 11.1-CaCl2 2.5). The medium was held at 37° C. and oxygenated by a mixture of O2 95%, CO2 5%. The initial pressure imposed was 1 g and the rings were left at rest for 60 to 90 minutes. To avoid spontaneous contractions, verapamil was added to the incubation bath (1.10^-6 M).
At the end of rest period, angiotensin II (Ciba hypertensin) 3.10^-8 M was added to the incubation bath and left in contact with the preparation for one minute. This operation was repeated every 30 minutes with the tissue being washed 3 or 4 times between two stimulations with angiotensin. The compound to be studied was introduced into the bath 15 minutes before a new stimulation with angiotensin. As increasing concentrations of this molecule were used, an IC50 (concentration that produced a 50% inhibition of the response to angiotensin) was calculated, expressed in nanomoles.

angiotensin II receptor = target: T2, angiotensin II receptor (Rattus norvegicus, UniProt P25095); experiment: Test on the angiotensin II receptor (rat liver membranes, 125I angiotensin II); format: binding; settings: pH 7.4, 25° C., 150 minutes, read-out: IC50 (displacement of 50% of the specific radioactivity fixed on the receptor)
T2 construct: A fresh membrane preparation obtained from the liver of a rat was used; from tissue; host or cells: rat liver membranes
T2 sequence (P25095 1-359): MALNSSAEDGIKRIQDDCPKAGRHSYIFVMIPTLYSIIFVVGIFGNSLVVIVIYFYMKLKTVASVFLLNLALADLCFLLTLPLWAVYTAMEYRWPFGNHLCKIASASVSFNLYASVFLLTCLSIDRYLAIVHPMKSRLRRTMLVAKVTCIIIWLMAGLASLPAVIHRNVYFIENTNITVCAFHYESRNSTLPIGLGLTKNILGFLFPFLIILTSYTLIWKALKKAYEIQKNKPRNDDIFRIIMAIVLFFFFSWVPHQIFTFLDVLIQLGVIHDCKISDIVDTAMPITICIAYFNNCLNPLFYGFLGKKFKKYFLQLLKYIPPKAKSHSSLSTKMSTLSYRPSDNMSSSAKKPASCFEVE
Procedure: 1) Test on the angiotensin II receptor
A fresh membrane preparation obtained from the liver of a rat was used. The tissue was ground up in a polytron in a Tris 50 mM pH 7.4 buffer and after being ground up, the tissue was centrifuged 3 times at 30,000 g for 15 mintues with intermediate taking up of the deposits in the Tris pH 7.4 buffer. The last deposits were suspended in a pH 7.4 incubation buffer (Tris 20 mM, NaCl 135 mM, KCl 10 mM, glucose 5 mM, MgCl2 10 mM, benzyl sulfonyl fluoride 0.3 mM, bacitracin 0.1 mM, (0.2% bovine albumin serum). 2 ml aliquoted fractions were divided into hemolysis tubes and 125I angiotensin II (25,000 DPM/tube) and the product to be studied were added. The product was first tested at 3×10^-5 M in triplicate. When the test product displaced more than 50% of the radioactivity linked specifically to the receptor, it was tested again in a range of 7 concentrations to determine the concentration that inhibited the radioactivity linked specifically to the receptor by 50%. In this way, the 50% inhibiting concentration was determined.
The non-specific bond was determined by the addition of the product of Example 94 of the European Patent No. 0,253,310 at 10^-5 M (in triplicate). […]

IC50 (endotheline receptor)	IC50 [2]	IC50 (angiotensin II receptor)	Compound	antagonistic effect: decrease in response to endotheline (average arterial pressure) [1]
14000 nM			CC(C)Cc1cc(OCc2ccc(-c3ccccc3C(=O)O)cc2)c2cccc(C(F)(F)F)c2n1 [Example 35, 4'-(((2-(2-methylproyl)-8-(trifluoromethyl)-4-quinolinyl)-oxy)-methyl)(1,1'-biphenyl)-2-carboxylic acid]	antagonistic effect
	131 nM	540 nM	CCCCc1cc(Cc2ccc(-c3ccccc3C(=O)O)cc2)c2ccccc2n1 [Example 4, 4'-[(2-butyl-4-quinolinyl)-methyl](1,1'-biphenyl)-2-carboxylic acid]	

Source: patent US5817674A, “Quinoline compounds” (Roussel Uclaf, priority 1991, dated 1998)
